Results: patent publication US20250206732A1, “COMPOUNDS AND METHODS FOR THE TARGETED DEGRADATION OF KRAS” (Arvinas Operations, Inc., priority 2022, published 2025)

Biological target: T1, AsPC-1 HiBiT-KRASG12D (Homo sapiens, UniProt P01116, G12D)
T1 construct: insert the HiBiT tag onto the N-terminus of one or more of the endogenous KRAS alleles; endogenous in cells; host or cells: AsPC-1 (ATCC CRL-1682), CRISPR-Cas9 knock-in clone, one tagged allele
Experiment: HiBiT degradation assay (G12D), AsPC-1 HiBiT-KRASG12D cells
Format: cell-based
Conditions: 24 hours treatment; for Dmax: ASPC1, AsPC-1 HiBiT-KRASG12D cells, maximum degradation observed; for DC50: AsPC-1 HiBiT-KRASG12D cells, HiBiT luminescence
Excerpt: Reagents. […] SW1573 cells are homozygous for the G12C mutation in KRAS, AsPC-1 cells are homozygous for the G12D mutation, and SW620 cells are homozygous for the G12V mutation. […] For degradation assays, 384 well plates were used. Alamar blue was purchased from ThermoFisher scientific (A50101) and used according to manufacturer instructions. The Nano-Glo® HiBiT Lytic Detection System and Nano-Glo® HiBiT Blotting System were purchased from Promega (#N3050 and #N2410) and used according to manufacturer instructions.
To create the AsPC-1 HiBiT-KRASG12D cell line, CRISPR-Cas9 was used to insert the HiBiT tag onto the N-terminus of one or more of the endogenous KRAS alleles. […] After knock-in of the tag, individual clones were isolated by single cell dilution and screened for HiBiT insertion by PCR. […] This clone was used in further studies.
HiBiT degradation assays (G12C and G12D). […] All assays were performed in triplicate. Cells were treated with compounds for 24 hours at 37° C. in an incubator containing 5% CO2. Following treatment, alamar blue was used to determine if any compounds led to a loss in cell viability after 24 hours. The 10× alamar blue reagent was added to a final concentration of 1× as recommended by the manufacturer and cells were returned to the incubator for 4 hours. Plates were then allowed to equilibrate to room temperature and fluorescence was measured using a Perkin-Elmer EnVision. After completion of the fluorescence read, the liquid from each well was removed and the cells were washed with PBS. The Nano-Glo® HiBiT detection reagent was prepared according to the manufacturer's instructions and added to each well after the PBS wash was removed. Following incubation at room temperature for 45 minutes, the luminescence was read using the ultra-sensitive luminescence aperture on the Envision instrument.
Data analysis. Fluorescence values from the alamar blue treatment were normalized to the DMSO-only control for each compound titration.

T1 sequence (P01116 1-188 isoform P01116-2 G12D): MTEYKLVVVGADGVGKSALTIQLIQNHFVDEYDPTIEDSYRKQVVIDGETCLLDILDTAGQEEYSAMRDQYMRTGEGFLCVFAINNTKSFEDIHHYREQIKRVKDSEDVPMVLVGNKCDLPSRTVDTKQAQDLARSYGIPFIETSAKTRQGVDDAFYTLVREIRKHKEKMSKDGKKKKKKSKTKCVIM

| Structure (SMILES) | Dmax [%] | DC50 [nM] |
| --- | --- | --- |
| CCc1cccc2cc(O)cc(-c3ncc4c(N5CC6CCC(C5)N6)nc(OCCN5C[C@@H]6CN(c7cc([C@@H](C(=O)N8C[C@H](O)C[C@H]8C(=O)N[C@@H](C)c8ccc(-c9scnc9C)cc8)C(C)C)on7)C[C@H]6C5)nc4c3F)c12 (relative stereo) [Compound 78, (2S,4R)-1-[(2R*)-2-{3-[(3aR,6aR)-5-{2-[(4-{3,8-diazabicyclo[3.2.1]octan-3-yl}-7-(8-ethyl-3-hydroxynaphthalen-1-yl)-8-fluoropyrido[4,3-d]pyrimidin-2-yl)oxy]ethyl}-octahydropyrrolo[3,4-c]pyrrol-2-yl]-1,2-oxazol-5-yl}-3-methylbutanoyl]-4-hydroxy-N-[(1S)-1-[4-(4-methyl-1,3-thiazol-5-yl)phenyl]ethyl]pyrrolidine-2-carboxamide] | 20 to 60 | 1000 to 3000 |
| CCc1cccc2cc(O)cc(-c3ncc4c(N5CC6CCC(C5)N6)nc(OC[C@@H]5CC[C@@H](COC(=O)N6CCN(c7cc([C@H](C(=O)N8C[C@H](O)C[C@H]8C(=O)N[C@@H](C)c8ccc(-c9scnc9C)cc8)C(C)C)on7)CC6)N5C)nc4c3F)c12 [Compound 50, [(2S,5S)-5-{[(4-{3,8-diazabicyclo[3.2.1]octan-3-yl}-7-(8-ethyl-3-hydroxynaphthalen-1-yl)-8-fluoropyrido[4,3-d]pyrimidin-2-yl)oxy]methyl}-1-methylpyrrolidin-2-yl]methyl 4-{5-[(2R)-1-[(2S,4R)-4-hydroxy-2-{[(1S)-1-[4-(4-methyl-1,3-thiazol-5-yl)phenyl]ethyl]carbamoyl}pyrrolidin-1-yl]-3-methyl-1-oxobutan-2-yl]-1,2-oxazol-3-yl}piperazine-1-carboxylate] | 80 to 100 | < 600 |
| CCc1cccc2cccc(-c3ncc4c(N5CCCCCC5)nc(OC[C@]56CCCN5[C@H](COC(=O)N5CCN(c7cc([C@H](C(=O)N8C[C@H](O)C[C@H]8C(=O)N[C@@H](C)c8ccc(-c9scnc9C)cc8)C(C)C)on7)CC5)CC6)nc4c3F)c12 (relative stereo) [Compound 331] |  | > 3000 |
| CCc1cccc2cc(O)cc(-c3ncc4c(N5CC6CCC(C5)N6)nc(OC[C@@H]5CC[C@@H](COC(=O)N6CCN(c7cc([C@@H](C(=O)N8C[C@H](O)C[C@H]8C(=O)N[C@@H](C)c8ccc(-c9scnc9C)cc8)C(C)C)on7)C[C@@H]6C)N5C)nc4c3F)c12 [Compound 280, [(2S,5S)-5-[[4-(3,8-diazabicyclo[3.2.1]octan-3-yl)-7-(8-ethyl-3-hydroxy-1-naphthyl)-8-fluoro-pyrido[4,3-d]pyrimidin-2-yl]oxymethyl]-1-methyl-pyrrolidin-2-yl]methyl (2S)-4-[5-[(1S)-1-[(2S,4R)-4-hydroxy-2-[[(1S)-1-[4-(4-methylthiazol-5-yl)phenyl]ethyl]carbamoyl]pyrrolidine-1-carbonyl]-2-methyl-propyl]isoxazol-3-yl]-2-methyl-piperazine-1-carboxylate] | 20 to 60 | 600 to 1000 |
| CCc1cccc2cc(O)cc(-c3ncc4c(N5CCCCCC5)nc(OC[C@]56CCCN5[C@H](COC(=O)N5CCC(Oc7cc([C@H](C(=O)N8C[C@H](O)C[C@H]8C(=O)N[C@@H](C)c8ccc(-c9scnc9C)cc8)C(C)C)on7)CC5)CC6)nc4c3F)c12 [Compound 286, [(3S,8R)-8-[[4-(azepan-1-yl)-7-(8-ethyl-3-hydroxy-1-naphthyl)-8-fluoro-pyrido[4,3-d]pyrimidin-2-yl]oxymethyl]-1,2,3,5,6,7-hexahydropyrrolizin-3-yl]methyl 4-[5-[(1R)-1-[(2S,4R)-4-hydroxy-2-[[(1S)-1-[4-(4-methylthiazol-5-yl)phenyl]ethyl]carbamoyl]pyrrolidine-1-carbonyl]-2-methyl-propyl]isoxazol-3-yl]oxypiperidine-1-carboxylate] | 80 to 100 | < 600 |
| CCc1cccc2cc(O)cc(-c3ncc4c(N5CC6CCC(C5)N6)nc(OCCN5CCC(CN6CCN(c7cc([C@H](C(=O)N8C[C@H](O)C[C@H]8C(=O)N[C@@H](C)c8ccc(-c9scnc9C)cc8)C(C)C)on7)CC6)CC5)nc4c3F)c12 [Compound 211, (2S,4R)-1-[(2R)-2-(3-{4-[(1-{2-[(4-{3,8-diazabicyclo[3.2.1]octan-3-yl}-7-(8-ethyl-3-hydroxynaphthalen-1-yl)-8-fluoropyrido[4,3-d]pyrimidin-2-yl)oxy]ethyl}piperidin-4-yl)methyl]piperazin-1-yl}-1,2-oxazol-5-yl)-3-methylbutanoyl]-4-hydroxy-N-[(1S)-1-[4-(4-methyl-1,3-thiazol-5-yl)phenyl]ethyl] pyrrolidine-2-carboxamide] | 80 to 100 | < 600 |
| CCc1cccc2cc(O)cc(-c3ncc4c(N5CC6CCC(C5)N6)nc(OCCN5CCC(CC6CCN(c7cc([C@H](C(=O)N8C[C@H](O)C[C@H]8C(=O)N[C@@H](C)c8ccc(-c9ccnn9C)cc8)C(C)C)on7)CC6)CC5)nc4c3F)c12 [Compound 202, (2S,4R)-1-[(2R)-2-(3-{4-[(1-{2-[(4-{3,8-diazabicyclo[3.2.1]octan-3-yl}-7-(8-ethyl-3-hydroxynaphthalen-1-yl)-8-fluoropyrido[4,3-d]pyrimidin-2-yl)oxy]ethyl}piperidin-4-yl)methyl]piperidin-1-yl}-1,2-oxazol-5-yl)-3-methylbutanoyl]-4-hydroxy-N-[(1S)-1-[4-(1-methyl-1H-pyrazol-5-yl)phenyl]ethyl]pyrrolidine-2-carboxamide] | 80 to 100 | < 600 |
| CCc1cccc2cc(O)cc(-c3ncc4c(N5CC6CCC(C5)N6)nc(OCCN5CCC(F)(COc6cc([C@H](C(=O)N7C[C@H](O)C[C@H]7C(=O)N[C@@H](C)c7ccc(-c8scnc8C)cc7)C(C)C)on6)CC5)nc4c3F)c12 [Compound 337, (2S,4R)-1-[(2R)-2-{3-[(1-{2-[(4-{3,8-diazabicyclo[3.2.1]octan-3-yl}-7-(8-ethyl-3-hydroxynaphthalen-1-yl)-8-fluoropyrido[4,3-d]pyrimidin-2-yl)oxy]ethyl}-4-fluoropiperidin-4-yl)methoxy]-1,2-oxazol-5-yl}-3-methylbutanoyl]-4-hydroxy-N-[(1S)-1-[4-(4-methyl-1,3-thiazol-5-yl)phenyl]ethyl]pyrrolidine-2-carboxamide] | 80 to 100 | < 600 |
| CCc1cccc2cc(O)cc(-c3ncc4c(N5CC6CCC(C5)N6)nc(OC[C@]56CCCN5[C@H](COC(=O)N5CCN(c7cc([C@@H](C(=O)N8C[C@H](O)C[C@H]8C(=O)N[C@@H](C)c8ccc(-c9scnc9C)cc8)C(C)C)on7)[C@H](C)C5)CC6)nc4c3F)c12 [Compound 131, [(3S,7aR)-7a-{[(4-{3,8-diazabicyclo[3.2.1]octan-3-yl}-7-(8-ethyl-3-hydroxynaphthalen-1-yl)-8-fluoropyrido[4,3-d]pyrimidin-2-yl)oxy]methyl}-hexahydro-1H-pyrrolizin-3-yl]methyl (3R)-4-{5-[(2S)-1-[(2S,4R)-4-hydroxy-2-{[(1S)-1-[4-(4-methyl-1,3-thiazol-5-yl)phenyl]ethyl]carbamoyl}pyrrolidin-1-yl]-3-methyl-1-oxobutan-2-yl]-1,2-oxazol-3-yl}-3-methylpiperazine-1-carboxylate] | < 20 | < 600 |
| CCc1cccc2cc(O)cc(-c3ncc4c(N5CC6CCC(C5)N6)nc(OC[C@]56CCCN5[C@@H](COC(=O)NCc5cc([C@H](C(=O)N7C[C@H](O)C[C@H]7C(=O)N[C@@H](C)c7ccc(-c8scnc8C)cc7)C(C)C)on5)CC6)nc4c3F)c12 [Compound 102, [(3R,7aR)-7a-{[(4-{3,8-diazabicyclo[3.2.1]octan-3-yl}-7-(8-ethyl-3-hydroxynaphthalen-1-yl)-8-fluoropyrido[4,3-d]pyrimidin-2-yl)oxy]methyl}-hexahydro-1H-pyrrolizin-3-yl]methyl N-({5-[(2R)-1-[(2S,4R)-4-hydroxy-2-{[(1S)-1-[4-(4-methyl-1,3-thiazol-5-yl)phenyl]ethyl]carbamoyl}pyrrolidin-1-yl]-3-methyl-1-oxobutan-2-yl]-1,2-oxazol-3-yl}methyl) carbamate] | 80 to 100 | < 600 |
| CCc1cccc2cc(O)cc(-c3ncc4c(N5C[C@H]6CC[C@@H](C5)N6)nc(OC[C@@H]5CC[C@@H](COC(=O)N6CC7(C6)CN(c6cc([C@H](C(=O)N8C[C@H](O)C[C@H]8C(=O)N[C@@H](C)c8ccc(-c9scnc9C)cc8)C(C)C)on6)C7)N5C)nc4c3F)c12 [Compound 256, ((2S,5S)-5-(((4-((1R,5S)-3,8-diazabicyclo[3.2.1]octan-3-yl)-7-(8-ethyl-3-hydroxynaphthalen-1-yl)-8-fluoropyrido[4,3-d]pyrimidin-2-yl)oxy)methyl)-1-methylpyrrolidin-2-yl)methyl 6-(5-((R)-1-((2S,4R)-4-hydroxy-2-(((S)-1-(4-(4-methylthiazol-5-yl)phenyl)ethyl)carbamoyl)pyrrolidin-1-yl)-3-methyl-1-oxobutan-2-yl)isoxazol-3-yl)-2,6-diazaspiro[3.3]heptane-2-carboxylate] | 80 to 100 | < 600 |
